The values below come from patent US7230132B2, “Aryl N-cyanoguanidines and methods related thereto” (Migenix Corp., priority 2001, dated 2007).

Common to all, as to assay type: cell-based
The subject of assay [1] is TC28 cells. Description: GAG release from TC28 chondrocytes in polyHEME plates (DMB dye binding assay). The settings on record: for % Decrease in GAG Release, IL-1b / % Decrease in GAG Release, NOC-12 / % Decrease in GAG Release, SIN-1: TC28 cells in polyHEME plates, 1 μM compound; for % Decrease in GAG Release, IL-1b: trigger IL-1 10 ng/ml; for % Decrease in GAG Release, NOC-12: trigger NOC-12 25 μM; for % Decrease in GAG Release, SIN-1: trigger SIN-1 10 μM; for EC50: approximate, prevention of GAG release, polyHEME plates, 1 h pretreatment, 72 h. The protocol: Immortalized TC28 (a.k.a. “[…]”) juvenile rib chondrocytes were provided by Dr. Mary Goldring (Harvard Medical School, Boston, Mass.). The TC28 cells were maintained in monolayer culture in DMEM/Ham's F12 (1:1) and supplemented with 10% FCS, 1% L-glutamine, 100 units/ml Penicillin and […] Streptomycin (Omega Scientific, Tarzana, Ca) and cultured at 37° C. with 5% CO2. Additionally, to further study chondrocytic cells in a more physiologic nonadherent state, in some experiments, TC28 cells were transferred to 6 well plates that had been previously coated for 18 hours at 22° C. with 10% (v/v) in 95% ethanol solution of the cell adhesion inhibitor poly 2-hydroxyethyl methacrylate (polyHEME), followed by two washes in PBS. Complete DMEM/Ham's F12 medium was then added to the wells and the cells studied for up to 72 hours in culture (Folkman J. and Moscona A: Role of cell shape in growth control, Nature 273:345-349, 1978; Reginato A, Iozzo R, Jimenez S: Formation of Nodular Structures Resembling Mature Articular Cartilage in Long-Term Primary Cultures of Human Fetal Epiphyseal Chondrocytes on a Hydrogel Substrate, Arthritis Rheum 37: 1338-1349, 1994). Type II collagen and aggrecan expression were confirmed using RT-PCR, which verified maintenance of chondrocyte phenotype. The chondrocyte protective effects of representative compounds were screened in vitro. The agonists included a donor of nitric oxide (NOC-12), a donor of peroxynitrite (SIN-1), and human recombinant IL-1beta. […] Cytotoxicity was studied using standard LDH release assay, and chondrocyte intracellular ATP was measured by standard luciferase assay. The enhanced release from chondrocytes of glycosaminoglycans (GAG) is a central feature of osteoarthritic chondrocytes, and is known to be stimulated potently by IL-1, which, like NO and peroxynitrite is a major pathogenic factor in osteoarthritis. […] The digestion of the interfering proteins accomplished in this manner allowed the GAG release to be more readily detectable, and the GAG release was quantified by the standard dimethylene blue (DMB) dye binding colorimetric assay. In brief, the cell extract digested from above was combined with 46 μM DMB, 40 mM glycine and 40 mM NaCl (pH 3.0) and immediately read at 525 nm and compared again at a standard curve generated with samples of 1-50 μg/ml chondroitin sulfate (Farndale R, Buttle D, Barrett A: Improved quantitation and discrimination of sulphated glycosaminoglycans by us of dimethylmethylene blue, Biochimica et Biophysica Acta 883: 173-177, 1986; SztrolovicsR, White R, Poole R, Mort J, Roughley P: Resistance of small leucine-rich repeat proteoglycans to proteolytic degradation during interleukin-1 stimulated cartilage catabolism, Biochem J. 339: 571-577, 1999). Collagen production was measured by following ^3H proline incorporation as described in Johnson et al., Arthritis Rheum. 43:11560-70, 2000. […] In these experiments, TC28 cells in polyHEME coated plates were pre-treated for 1 hr followed by exposure to trigger for 72 hrs in the present of Compound (1).

Assay [2] relates to TC28 cells. Briefly: Cell viability assay (LDH release, CytoTox 96). The settings on record: approximate, prevention of cell death, 1 h pretreatment, 24 h exposure. The protocol: 1×10^5 TC28 cells (DMEM/F12 media with 10% FCS, 1% glutamine, 1% P/S) were plated each well in a 96 well plate and allowed to adhere overnight. The cells were washed once with PBS and media changed to contain only 1% FCS. Compound (1) at various concentrations was added to the cells for a pretreatment of 1 hr. The media was removed and fresh compound+/− the toxic stimuli were added. The cells were then incubated for 24 hrs at 37° C. Following the incubation the media was collected and used for analysis in the CytTox 96 Nonradioactive Cytotoxicity Assay (Promega, Madison, Wis.). Briefly the LDH release from the dead cells was quantified in a 30 min enzymatic reaction that results in the conversion of a tetrazolium […] to a red formazan product. The results were then expressed as the percent of cells dead relative to the release of LDH by the control cells.
(§1) The results of the above Cell Viability and ATP Assays are presented in Table 3, which provides the approximate EC50 values (μM) for prevention of SIN-1 and NOC-12 mediated cell death and ATP depletion by Compound (1). In these assays, TC28 cells were pre-treated for one hour followed by 24-hour exposure to trigger in the presence of Compound (1).

Assay [3] relates to TC28 cells. Description: ATP assay (luciferase). To be noted: approximate, prevention of ATP depletion, 1 h pretreatment, 24 h exposure. The protocol:
5×10^5 TC28 cells were plated in a 60 mm dish and allowed to adhere overnight. The cells were then washed with PBS and media was changed to 1% FCS containing media. Compound (1) was added for 1 hr pretreatment of the cells at 37° C. The media was removed and fresh compound+/− the toxic stimuli were added and the cells incubated for 24 hrs at 37° C. The cells were gently scraped into PBS and washed and then the pellets were snap frozen in dry ice. The cells were then extracted in 0.4 N perchloric acid and incubated on ice for 15 min. The cells were centrifuged at 14,000 rpm for 15 min and the supernatant removed. 24% (by volume) of 2.2 M KHCO3 was added to neutralize the solution and the precipitate was pelleted by centrifugation. This supernatant was mixed with the ATP assay mix from the Sigma ATP Luciferase kit and the reaction was counted for 15 sec (with an initial 5 sec delay) in triplicate. Counts were corrected for total DNA in the cell pellet (see Table 3).
as §1

Assay [4] concerns TC28 cells. Description: Collagen synthesis (3H proline incorporation). To be noted: approximate, prevention of inhibition of collagen synthesis, polyHEME plates, 1 h pretreatment, 72 h. Here is the method:
Collagen production was measured by following ^3H proline incorporation as described in Johnson et al., Arthritis Rheum. 43:11560–70, 2000. The results are presented in Table 4, which provides the approximate EC50 values (μM) for prevention of SIN-1, NOC-12 and IL-1 mediated GAG release (via Example 3) and inhibition of collagen synthesis (via Johnson et al.) in chondrocytes by Compound (1). In these experiments, TC28 cells in polyHEME coated plates were pre-treated for 1 hr followed by exposure to trigger for 72 hrs in the present of Compound (1).

Assay [5] deals with TC28 cells. Briefly: Oxygen consumption / mitochondrial respiration in TC28 monolayer culture. To be noted: 500 μM SIN-1 for 4 hr +/- 10 μM compound, FIG. 1. Here is the method:
In this experiment, TC28 cells were treated with 500 μM SIN-1 for 4 hr+/−10 μM Compound (1): State 3/4—basal respiration rate with no substrate addition; State 4—respiration rate in present of […] oligomycin; State 3U—maximal state 3 uncoupled respiration rate due to addition of the uncoupler CCCP.

Assay [6] has as its system bovine cartilage slices. Description: Bovine cartilage organ culture, IL-1-mediated GAG release. To be noted: approximate, IL-1 10 ng/ml, 6 h pretreatment, 24 h, read-out: EC50 GAG Release, IL-1 Trigger. The protocol:
(§2) Mature bovine knees were obtained and cartilage from the femoral condyles and patellar groove was removed in full thickness slices. (1–3 mm). Circular cores (6–7 mm in diameter) were punched out of the tissue. The cores were washed twice with media (1% FCS, 1% P/S, 1% glutamine containing DMEM high glucose) and then placed in 96 wells plates. The slices were incubated in media (as above) at 37° C. for 48 hrs to allow for recovery from the isolation process. After the recovery period, the media was removed and fresh media with Compound (1) was added to the slices for a pretreatment period of 6 hrs. Then the media was removed and fresh Compound (1)+/− IL-1 (at 10 ng/ml) was added and incubated at 37° C. for 24 hrs. The conditioned media was collected and the GAG and NO release were analyzed. Finally the slices were weighed to correct for slight variations in size or thickness. The results of this experiment are presented in Table 5, which provides the approximate EC50 values (μM) for prevention of IL-1-mediated GAG and NO release in bovine cartilage slices by Compound (1).

Assay [7] deals with bovine cartilage slices. Briefly: Bovine cartilage organ culture, IL-1-mediated NO release. To be noted: approximate, IL-1 10 ng/ml, 6 h pretreatment, 24 h, read-out: EC50 NO Release, IL-1 Trigger. The protocol: as §2

`COc1ccc(NC(N)=NC#N)cc1Cl` [(2)]: in assay [1], the “% Decrease in GAG Release, IL-1b” value came out at 40.9%; the “% Decrease in GAG Release, NOC-12” value is 50.1%; the “% Decrease in GAG Release, SIN-1” value is listed as 23.6%.
Turning to `N#CN=C(N)Nc1ccc(N2CCOCC2)cc1` [(3)], in assay [1], the “% Decrease in GAG Release, IL-1b” value was found to be 29.1%; the “% Decrease in GAG Release, NOC-12” value stood at 28.0%; the “% Decrease in GAG Release, SIN-1” value turned out to be 21.9%.
On the same counts, the results for `COc1cc(NC(N)=NC#N)cc(OC)c1OC` [(4)] are 1.5%, 17.2% and 11.3%.
Turning to `N#CN=C(N)Nc1cccc(C(F)(F)F)c1` [(5)], in assay [1], the “% Decrease in GAG Release, IL-1b” value amounted to 30.7%; the “% Decrease in GAG Release, NOC-12” value stood at 14.2%; the “% Decrease in GAG Release, SIN-1” value is reported as 35.0%.
Regarding `Cc1ccc(NC(N)=NC#N)c(C)c1` [(6)], in assay [1], the “% Decrease in GAG Release, IL-1b” value is recorded as 2.4%; the “% Decrease in GAG Release, NOC-12” value came to 11.0%; the “% Decrease in GAG Release, SIN-1” value is 1.6%.
With `Cc1cc(C)cc(NC(N)=NC#N)c1` [(7)], in assay [1], the “% Decrease in GAG Release, IL-1b” value was 56.6%; the “% Decrease in GAG Release, NOC-12” value is listed as 46.2%; the “% Decrease in GAG Release, SIN-1” value is recorded as 42.3%.
In the case of `Cc1cc(Cl)ccc1NC(N)=NC#N` [(8)], in assay [1], the “% Decrease in GAG Release, IL-1b” value was found to be 43.8%; the “% Decrease in GAG Release, NOC-12” value was found to be 32.3%; the “% Decrease in GAG Release, SIN-1” value amounted to 55.2%.
`Cc1cc(O)ccc1NC(N)=NC#N` [Compound (1)]: the “% Decrease in GAG Release, IL-1b” value in assay [1] is on record as 36.8%. For the same molecule, the “% Decrease in GAG Release, NOC-12” value in assay [1] was found to be 27.4%. Moreover, the “% Decrease in GAG Release, SIN-1” value in assay [1] is reported as 47.7%. Also, the EC50 is about 100 nM in assay [1] (IL-1 challenge 10 ng/ml, read-out: EC50 GAG Release, trigger IL-1); about 100 nM in assay [1] (NOC-12 challenge 25 μM, read-out: EC50 GAG Release, trigger Noc12); about 100 nM in assay [1] (SIN-1 challenge 10 μM, read-out: EC50 GAG Release, trigger Sin-1); about 10 nM in assay [2] (NOC-12 challenge 250 μM, read-out: EC50 Cell Viability, trigger Noc12); about 10 nM in assay [2] (SIN-1 challenge 100 μM, read-out: EC50 Cell Viability, trigger Sin-1); about 100 nM in assay [3] (NOC-12 challenge 250 μM, read-out: EC50 ATP Depletion, trigger Noc12). Besides, the concentration for a half-maximal effect (EC50) in assay [3] (SIN-1 challenge 100 μM, read-out: EC50 ATP Depletion, trigger Sin-1) is about 100 nM; in assay [4] (IL-1 challenge 10 ng/ml, read-out: EC50 Collagen, trigger IL-1), about 1000 nM; in assay [4] (NOC-12 challenge 25 μM, read-out: EC50 Collagen, trigger Noc12), about 1000 nM; in assay [4] (SIN-1 challenge 10 μM, read-out: EC50 Collagen, trigger Sin-1), about 1000 nM; in assay [6] it was about 10000 nM; in assay [7], about 10000 nM. The “SIN-1-mediated inhibition of mitochondrial respiration” value in assay [5] is “blocked SIN-1-mediated inhibition of mitochondrial respiration”.
